Converted amounts (≈) assume the structure as drawn.
Columns and labels:
Test in all cases: Agar dilution MIC
[1] = tested on: Actinomyces odontolyticus; type: cell-based; conditions: 10 isolates
Actinomyces israelii = type: cell-based; conditions: 6 isolates
[2] = tested on: Anaerobiospirillum thomasii; type: cell-based; conditions: 13 isolates
[3] = tested on: Anaerobiospirillum succiniciproducens; type: cell-based; conditions: 3 isolates
Bacteroides gracilis = type: cell-based, Bacteroides gracilis (Campylobacter gracilis); conditions: Campylobacter gracilis, 11 isolates
Bacteroides tectum = type: cell-based; conditions: 22 isolates
Bacteroides ureolyticus = type: cell-based; conditions: Campylobacter ureolyticus, 17 isolates
Bilophila wadsworthia = type: cell-based; conditions: Bilophila wadsworthia, 16 isolates, agar supplemented with pyruvate
[4] = tested on: Clostridium clostridioforme; type: cell-based; conditions: 11 isolates
Clostridium inocuum = type: cell-based, Clostridium innocuum; conditions: Clostridium, 11 isolates
Clostridium ramosum = type: cell-based; conditions: 10 isolates
[5] = tested on: Fusobacterium spp group 1; type: cell-based; conditions: 19 isolates
[6] = tested on: Fusobacterium spp. group 2; type: cell-based, Fusobacterium mortiferum, necrogenes, ulcerans; conditions: Fusobacterium, 12 isolates
Fusobacterium russii = type: cell-based
Fusobacterium varium = type: cell-based; conditions: Fusobacterium varium, 17 isolates
[7] = tested on: Peptostreptococcus asaccharolyticus; type: cell-based; conditions: 11 isolates
[8] = tested on: Peptostreptococcus magnus; type: cell-based; conditions: 13 isolates
[9] = tested on: Peptostreptococcus micros; type: cell-based; conditions: 12 isolates
[10] = tested on: Peptostreptococcus prevotii; type: cell-based; conditions: 9 isolates
[11] = tested on: Porphyromonas asaccharolyticus; type: cell-based, Porphyromonas asaccharolytica; conditions: 11 isolates
Porphyromonas canoris = type: cell-based; conditions: 10 isolates
Porphyromonas gingivalis = type: cell-based; conditions: 13 isolates
Porphyromonas macaccae = type: cell-based; conditions: 13 isolates
Porphyromonas spp. = type: cell-based, Porphyromonas cangingivalis, cansulci, circumdentaria, levii; conditions: 11 isolates
Prevotella bivia = type: cell-based; conditions: 21 isolates
[12] = tested on: Prevotella buccae-oris group; type: cell-based; conditions: 22 isolates
[13] = tested on: Prevotella heparinolytica; type: cell-based; conditions: 16 isolates
Prevotella intermedia = type: cell-based; conditions: 11 isolates
[14] = tested on: Prevotella melaninogenica; type: cell-based; conditions: 12 isolates
[15] = tested on: Prevotella denticola/loeschii group; type: cell-based; conditions: 6 isolates
Veillonella spp. = type: cell-based; conditions: Veillonella, 24 isolates
[16] = read-out: Minimal Inhibitory Concentration 90% (MIC90)
[17] = read-out: Minimal Inhibitory Concentration 50% (MIC50)
[18] = Porphyromonas, read-out: Minimal Inhibitory Concentration 50% (MIC50)
[19] = Porphyromonas, read-out: Minimal Inhibitory Concentration 90% (MIC90)

With `N[C@@H]1[C@H]2CN(c3nc4c(cc3F)c(=O)c(C(=O)O)cn4-c3ccc(F)cc3F)C[C@@H]12` [Trovafloxacin] the “Minimal Inhibitory Concentration Range” value [1] was 2 to 4 µg/mL, the MIC90 ([1]; Schaalia odontolytica, read-out: Minimal Inhibitory Concentration 90% (MIC90)) was 4 mg/L (≈ 9.61 µM) and the MIC50 ([1]; Schaalia odontolytica, read-out: Minimal Inhibitory Concentration 50% (MIC50)) was 4 mg/L (≈ 9.61 µM). The “Minimal Inhibitory Concentration Range” value (Actinomyces israelii) was 0.5 to 2 µg/mL, the MIC50 (Actinomyces israelii; Actinomyces israelii, read-out: Minimal Inhibitory Concentration 50% (MIC50)) was 1 mg/L (≈ 2.4 µM) and the “Minimal Inhibitory Concentration Range” value [2] was 0.06 to 0.5 µg/mL. The MIC50 ([2]; Anaerobiospirillum thomasii, read-out: Minimal Inhibitory Concentration 50% (MIC50)) was 0.125 mg/L (≈ 0.3 µM), the MIC90 ([2]; Anaerobiospirillum thomasii, read-out: Minimal Inhibitory Concentration 90% (MIC90)) was 0.25 mg/L (≈ 0.6 µM) and the “Minimal Inhibitory Concentration Range” value [3] was 0.5 to 2 µg/mL. For the same compound, the MIC50 ([3]; Anaerobiospirillum succiniciproducens, read-out: Minimal Inhibitory Concentration 50% (MIC50)) was 1 mg/L (≈ 2.4 µM), the MIC90 (Bacteroides gracilis; [16]) was 0.5 mg/L (≈ 1.2 µM) and the MIC50 (Bacteroides gracilis; [17]) was 0.03 mg/L (≈ 0.0721 µM). For the same compound, the “Minimal Inhibitory Concentration Range” value (Bacteroides tectum) was 0.03 to 0.125 µg/mL, the MIC90 (Bacteroides tectum; Bacteroides pyogenes, read-out: Minimal Inhibitory Concentration 90% (MIC90)) was 0.125 mg/L (≈ 0.3 µM) and the MIC50 (Bacteroides tectum; Bacteroides pyogenes, read-out: Minimal Inhibitory Concentration 50% (MIC50)) was 0.06 mg/L (≈ 0.144 µM). For the same compound, the MIC90 (Bacteroides ureolyticus; [16]) was 4 mg/L (≈ 9.61 µM), the MIC50 (Bacteroides ureolyticus; [17]) was 0.06 mg/L (≈ 0.144 µM) and the MIC90 (Bilophila wadsworthia; [16]) was greater than 8 mg/L. For the same compound, the MIC50 (Bilophila wadsworthia; [17]) was 0.5 mg/L (≈ 1.2 µM), the “Minimal Inhibitory Concentration Range” value [4] was 1 to 8 µg/mL and the MIC90 ([4]; Clostridium, read-out: Minimal Inhibitory Concentration 90% (MIC90)) was 4 mg/L (≈ 9.61 µM). The MIC50 ([4]; Clostridium, read-out: Minimal Inhibitory Concentration 50% (MIC50)) was 4 mg/L (≈ 9.61 µM), the MIC90 (Clostridium inocuum; [16]) was 8 mg/L (≈ 19.2 µM) and the MIC50 (Clostridium inocuum; [17]) was 0.5 mg/L (≈ 1.2 µM). The “Minimal Inhibitory Concentration Range” value (Clostridium ramosum) was 0.25 to 8 µg/mL, the MIC50 (Clostridium ramosum; Thomasclavelia ramosa, read-out: Minimal Inhibitory Concentration 50% (MIC50)) was 0.5 mg/L (≈ 1.2 µM) and the MIC90 (Clostridium ramosum; Thomasclavelia ramosa, read-out: Minimal Inhibitory Concentration 90% (MIC90)) was 2 mg/L (≈ 4.8 µM). The “Minimal Inhibitory Concentration Range” value [5] was 0.25 to 4 µg/mL, the MIC50 ([5]; Fusobacterium, GROUP1, read-out: Minimal Inhibitory Concentration 50% (MIC50)) was 0.5 mg/L (≈ 1.2 µM) and the MIC90 ([5]; Fusobacterium, GROUP1, read-out: Minimal Inhibitory Concentration 90% (MIC90)) was 4 mg/L (≈ 9.61 µM). For the same compound, the MIC50 [6, 17] was 4 mg/L (≈ 9.61 µM), the MIC90 [6, 16] was 4 mg/L (≈ 9.61 µM) and the “Minimal Inhibitory Concentration Range” value (Fusobacterium russii) was 0.5 to 4 µg/mL. The MIC50 (Fusobacterium russii; Fusobacterium russii, read-out: Minimal Inhibitory Concentration 50% (MIC50)) was 4 mg/L (≈ 9.61 µM), the MIC90 (Fusobacterium russii; Fusobacterium russii, read-out: Minimal Inhibitory Concentration 90% (MIC90)) was 4 mg/L (≈ 9.61 µM) and the MIC50 (Fusobacterium varium; [17]) was 4 mg/L (≈ 9.61 µM). For the same compound, the MIC90 (Fusobacterium varium; [16]) was greater than 8 mg/L, the “Minimal Inhibitory Concentration Range” value [7] was 0.5 to 2 µg/mL and the MIC50 ([7]; Peptoniphilus asaccharolyticus, read-out: Minimal Inhibitory Concentration 50% (MIC50)) was 1 mg/L (≈ 2.4 µM). The MIC90 ([7]; Peptoniphilus asaccharolyticus, read-out: Minimal Inhibitory Concentration 90% (MIC90)) was 1 mg/L (≈ 2.4 µM), the “Minimal Inhibitory Concentration Range” value [8] was 0.06 to 0.25 µg/mL and the MIC50 ([8]; Finegoldia magna, read-out: Minimal Inhibitory Concentration 50% (MIC50)) was 0.125 mg/L (≈ 0.3 µM). The MIC90 ([8]; Finegoldia magna, read-out: Minimal Inhibitory Concentration 90% (MIC90)) was 0.25 mg/L (≈ 0.6 µM), the “Minimal Inhibitory Concentration Range” value [9] was 0.03 to 0.125 µg/mL and the MIC50 ([9]; Parvimonas micra, read-out: Minimal Inhibitory Concentration 50% (MIC50)) was 0.06 mg/L (≈ 0.144 µM). The MIC90 ([9]; Parvimonas micra, read-out: Minimal Inhibitory Concentration 90% (MIC90)) was 0.06 mg/L (≈ 0.144 µM), the “Minimal Inhibitory Concentration Range” value [10] was 0.25 to 1 µg/mL and the MIC50 ([10]; Anaerococcus prevotii, read-out: Minimal Inhibitory Concentration 50% (MIC50)) was 0.25 mg/L (≈ 0.6 µM). For the same compound, the “Minimal Inhibitory Concentration Range” value [11] was 0.03 to 0.25 µg/mL, the MIC50 [11, 18] was 0.25 mg/L (≈ 0.6 µM) and the MIC90 [11, 19] was 0.25 mg/L (≈ 0.6 µM). For the same compound, the “Minimal Inhibitory Concentration Range” value (Porphyromonas canoris) was 0.06 to 0.5 µg/mL, the MIC50 (Porphyromonas canoris; Porphyromonas canoris, read-out: Minimal Inhibitory Concentration 50% (MIC50)) was 0.25 mg/L (≈ 0.6 µM) and the MIC90 (Porphyromonas canoris; Porphyromonas canoris, read-out: Minimal Inhibitory Concentration 90% (MIC90)) was 0.5 mg/L (≈ 1.2 µM). The “Minimal Inhibitory Concentration Range” value (Porphyromonas gingivalis) was 0.03 to 0.06 µg/mL, the MIC50 (Porphyromonas gingivalis; Porphyromonas gingivalis, read-out: Minimal Inhibitory Concentration 50% (MIC50)) was 0.06 mg/L (≈ 0.144 µM) and the MIC90 (Porphyromonas gingivalis; Porphyromonas gingivalis, read-out: Minimal Inhibitory Concentration 90% (MIC90)) was 0.06 mg/L (≈ 0.144 µM). The “Minimal Inhibitory Concentration Range” value (Porphyromonas macaccae) was 0.03 to 0.125 µg/mL, the MIC50 (Porphyromonas macaccae; [18]) was 0.06 mg/L (≈ 0.144 µM) and the MIC90 (Porphyromonas macaccae; [19]) was 0.125 mg/L (≈ 0.3 µM). For the same compound, the “Minimal Inhibitory Concentration Range” value (Porphyromonas spp.) was 0.06 to 1 µg/mL, the MIC50 (Porphyromonas spp.; [18]) was 0.25 mg/L (≈ 0.6 µM) and the MIC90 (Porphyromonas spp.; [19]) was 1 mg/L (≈ 2.4 µM). For the same compound, the “Minimal Inhibitory Concentration Range” value (Prevotella bivia) was 1 to 4 µg/mL, the MIC90 (Prevotella bivia; Prevotella bivia, read-out: Minimal Inhibitory Concentration 90% (MIC90)) was 2 mg/L (≈ 4.8 µM) and the MIC50 (Prevotella bivia; Prevotella bivia, read-out: Minimal Inhibitory Concentration 50% (MIC50)) was 2 mg/L (≈ 4.8 µM). The “Minimal Inhibitory Concentration Range” value [12] was 0.25 to 4 µg/mL, the MIC90 ([12]; Prevotella, read-out: Minimal Inhibitory Concentration 90% (MIC90)) was 2 mg/L (≈ 4.8 µM) and the MIC50 ([12]; Prevotella, read-out: Minimal Inhibitory Concentration 50% (MIC50)) was 1 mg/L (≈ 2.4 µM). The “Minimal Inhibitory Concentration Range” value [13] was 0.125 to 0.25 µg/mL, the MIC90 ([13]; Prevotella heparinolytica, read-out: Minimal Inhibitory Concentration 90% (MIC90)) was 0.25 mg/L (≈ 0.6 µM) and the MIC50 ([13]; Prevotella heparinolytica, read-out: Minimal Inhibitory Concentration 50% (MIC50)) was 0.125 mg/L (≈ 0.3 µM). The “Minimal Inhibitory Concentration Range” value (Prevotella intermedia) was 0.06 to 1 µg/mL, the MIC90 (Prevotella intermedia; Prevotella intermedia, read-out: Minimal Inhibitory Concentration 90% (MIC90)) was 1 mg/L (≈ 2.4 µM) and the MIC50 (Prevotella intermedia; Prevotella intermedia, read-out: Minimal Inhibitory Concentration 50% (MIC50)) was 0.5 mg/L (≈ 1.2 µM). The “Minimal Inhibitory Concentration Range” value [14] was 0.06 to 8 µg/mL, the MIC90 ([14]; Prevotella melaninogenica, read-out: Minimal Inhibitory Concentration 90% (MIC90)) was 4 mg/L (≈ 9.61 µM) and the MIC50 ([14]; Prevotella melaninogenica, read-out: Minimal Inhibitory Concentration 50% (MIC50)) was 1 mg/L (≈ 2.4 µM). The “Minimal Inhibitory Concentration Range” value [15] was 0.06 to 4 µg/mL, the MIC50 ([15]; Prevotella denticola, read-out: Minimal Inhibitory Concentration 50% (MIC50)) was 1 mg/L (≈ 2.4 µM) and the MIC90 (Veillonella spp.; [16]) was greater than 8 mg/L. It also gave an MIC50 (Veillonella spp.; [17]) of 0.25 mg/L (≈ 0.6 µM).

— patent publication US6455540B1, “Methods of use of quinolone compounds against anaerobic pathogenic bacteria” (priority 1999, dated 2002)
